In ChEMBL document CHEMBL1212771, “BEL-2, an extended-spectrum beta-lactamase with increased activity toward expanded-spectrum cephalosporins in Pseudomonas aeruginosa” (Antimicrob Agents Chemother, 2010) one finds MIC and Ratio data, which are given here for seven compounds.

In brackets after ≈: the same amount, converted by molar mass.

By MIC is commonly meant the lowest concentration that inhibits growth of the organism.

The test system of assay [1] is Escherichia coli. The assay is described as follows: Antimicrobial activity against Escherichia coli TOP10 expressing recombinant beta-lactamase BEL-2 by solid agar dilution method. It is filed as functional. For orientation: In agar dilution, organisms are placed on agar that contains the substance at set levels.
Assay [2] deals with Pseudomonas aeruginosa. The assay is described as follows: Antimicrobial activity against Pseudomonas aeruginosa 51170 expressing beta-lactamase BEL-1 by solid agar dilution method. It is filed as functional.
In assay [3] the test system is Escherichia coli. The assay is described as follows: Antimicrobial activity against Escherichia coli TOP10 expressing recombinant beta-lactamase BEL-1 by solid agar dilution method. It is filed as functional.
Assay [4] relates to Pseudomonas aeruginosa. Put plainly: Antimicrobial activity against Pseudomonas aeruginosa 531 expressing beta-lactamase BEL-2 by solid agar dilution method. It is filed as functional.
The test system of assay [5] is Escherichia coli. The assay is described as follows: Antimicrobial activity against Escherichia coli TOP10 by solid agar dilution method. It counts as functional.
Assay [6] relates to Pseudomonas aeruginosa. Put plainly: Ratio of Km for Pseudomonas aeruginosa 51170 beta-lactamase BEL-1 to Km for Pseudomonas aeruginosa 531 beta-lactamase BEL-2.

Regarding `C[C@H]1[C@H](NC(=O)/C(=N\OC(C)(C)C(=O)O)c2csc(N)n2)C(=O)N1S(=O)(=O)O` [AZTREONAM], the MIC in the assay on Escherichia coli [1] was found to be 16 µg/mL; with Pseudomonas aeruginosa [2] it was 16 µg/mL (≈ 36.7 µM); with Escherichia coli [3] it was 16 µg/mL; in the assay on Pseudomonas aeruginosa [4], 64 µg/mL (≈ 147 µM).
With `CC(=O)OCC1=C(C(=O)O)N2C(=O)[C@@H](NC(=O)Cc3cccs3)[C@H]2SC1` [CEPHALOTHIN], the MIC with Escherichia coli [1] is 256 µg/mL; with Pseudomonas aeruginosa [2] it was above 512 µg/mL; against Escherichia coli [5], 2 µg/mL (≈ 5.04 µM); in the assay with Escherichia coli [3], 256 µg/mL; against Pseudomonas aeruginosa [4], above 512 µg/mL.
Turning to `CC1(C)S[C@@H]2[C@H](NC(=O)[C@H](C(=O)O)c3ccsc3)C(=O)N2[C@H]1C(=O)O` [TICARCILLIN], the MIC in the assay with Escherichia coli [1] is above 512 µg/mL; in the assay with Pseudomonas aeruginosa [2] it was above 512 µg/mL; in the assay with Escherichia coli [5] it was 4 µg/mL (≈ 10.4 µM); in the assay on Escherichia coli [3], above 512 µg/mL; against Pseudomonas aeruginosa [4], above 512 µg/mL.
Take `CO/N=C(\C(=O)N[C@@H]1C(=O)N2C(C(=O)O)=C(COC(C)=O)CS[C@H]12)c1csc(N)n1` [CEFOTAXIME]: the MIC with Escherichia coli [1] was found to be 32 µg/mL; in the assay on Pseudomonas aeruginosa [2] it was 32 µg/mL (≈ 70.3 µM); against Escherichia coli [5], 0.12 µg/mL (≈ 0.263 µM); in the assay with Escherichia coli [3] it was 4 µg/mL; in the assay with Pseudomonas aeruginosa [4], 256 µg/mL (≈ 562 µM).
As to `CO/N=C(\C(=O)N[C@@H]1C(=O)N2C(C(=O)[O-])=C(C[n+]3cccc4c3CCC4)CS[C@H]12)c1csc(N)n1` [CEFPIROME], the MIC in the assay with Escherichia coli [1] came to 0.5 µg/mL; against Pseudomonas aeruginosa [2], 16 µg/mL (≈ 31.1 µM); against Escherichia coli [5], 0.06 µg/mL (≈ 0.117 µM); with Escherichia coli [3], 0.25 µg/mL; in the assay with Pseudomonas aeruginosa [4], 64 µg/mL (≈ 124 µM).
Take `CC(C)(O/N=C(\C(=O)N[C@@H]1C(=O)N2C(C(=O)[O-])=C(C[n+]3ccccc3)CS[C@H]12)c1csc(N)n1)C(=O)O` [CEFTAZIDIME]: in the assay with Pseudomonas aeruginosa [6], the Ratio is below 3. For the same compound, the MIC in the assay on Escherichia coli [1] worked out at 128 µg/mL; against Pseudomonas aeruginosa [2] it was 32 µg/mL (≈ 58.5 µM); with Escherichia coli [5], 0.06 µg/mL (≈ 0.11 µM); in the assay on Escherichia coli [3] it was 16 µg/mL; in the assay with Pseudomonas aeruginosa [4] it was 256 µg/mL (≈ 468 µM).
Compound `C[C@@H](O)[C@H]1C(=O)N2C(C(=O)O)=C(SCCNC=N)C[C@H]12` [IMIPENEM ANHYDROUS] returned an MIC in the assay with Pseudomonas aeruginosa [4] of 1 µg/mL (≈ 3.34 µM).
